US10195196B2, “1,4-disubstituted pyridazine analogs there of and methods for treating SMN-deficiency-related conditions” (NOVARTIS AG, priority 2012, dated 2019)

Test system: SMN protein
Test: cellular SMN ELISA (SMN protein elevation)
Assay type: cell-based
Conditions: myoblast cell line from SMNdelta7 mouse model, 24 hours treatment; for SMN activity Fold: fold activation over DMSO control
Method in brief: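 Readout is fold SMN elevation versus DMSO plus EC50, measured by anti-SMN capture ELISA with 450 nm absorbance. Lysates came from a myoblast line of the SMNdelta7 mouse model after 24 h compound exposure, with dose ranges of 20 nM–10 μM (condition 1) or 100 pM–10 μM (condition 2).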

[1] = ELISA condition 2: compound concentration 100 pM-10 uM
[2] = ELISA condition 1: compound concentration range 20 nM-10 uM

Row | SMILES | EC50 [1] [nM] | SMN activity Fold [1] [Fold] | EC50 [2] [nM] | SMN activity Fold [2] [Fold]
1 | OCCN1C[C@@H]2CN(c3ccc(-c4ccc(-c5cn[nH]c5)cc4O)nn3)C[C@@H]2C1 [Example 43-1, 2-(6-((3aR,6aS)-5-(2-hydroxyethyl)hexahydropyrrolo[3,4-c]pyrrol-2(1H)-yl)pyridazin-3-yl)-5-(1H-pyrazol-4-yl)phenol] | 40 | 3.04 | – | –
2 | CN(c1ccc(-c2cc3ccc(C4=CCOCC4)cc3cc2O)nn1)C1CC(C)(C)NC(C)(C)C1 [Example 24-8, 7-(3,6-dihydro-2H-pyran-4-yl)-3-(6-(methyl(2,2,6,6-tetramethylpiperidin-4-yl)amino)pyridazin-3-yl)naphthalen-2-ol] | 7 | 2.39 | – | –
3 | CC1(C)CC(Nc2ccc(-c3ccc(C#N)cc3O)nn2)CC(C)(C)N1 [Example 30-2, 3-hydroxy-4-(6-((2,2,6,6-tetramethylpiperidin-4-yl)amino)pyridazin-3-yl)benzonitrile] | 62 | 2.98 | – | –
4 | CN(c1ccc(-c2cc(-n3cccn3)ccc2O)nn1)C1CC(C)(C)NC(C)(C)C1 [Example 16-4, 2-(6-(methyl(2,2,6,6-tetramethylpiperidin-4-yl)amino)pyridazin-3-yl)-4-(1H-pyrazol-1-yl)phenol] | 94 | 2.71 | – | –
5 | CC1(C)CC(Oc2ccc(-c3c(O)cc(-c4cn[nH]c4)cc3F)nn2)CC(C)(C)N1 [Example 40-5, 3-fluoro-5-(1H-pyrazol-4-yl)-2-(6-((2,2,6,6-tetramethylpiperidin-4-yl)oxy)pyridazin-3-yl)phenol] | 17 | 3.59 | – | –
6 | CN(c1ccc(-c2cc(-c3cn[nH]c3)ccc2O)nn1)C1CC(C)(C)NC(C)(C)C1 [Example 32-1, 2-(6-(methyl(2,2,6,6-tetramethylpiperidin-4-yl)amino)pyridazin-3-yl)-4-(1H-pyrazol-4-yl)phenol] | 125 | 2.67 | – | –
7 | CN(c1ccc(-c2ccc(-n3cccc3)nc2)nn1)C1CC(C)(C)NC(C)(C)C1 [Example 1-18, methyl-[6-(6-pyrrol-1-yl-pyridin-3-yl)-pyridazin-3-yl]-(2,2,6,6-tetramethyl-piperidin-4-yl)-amine] | – | – | 1130 | 2.69
8 | CN(c1ccc(-c2ccc(-n3cc(N)cn3)cc2O)nn1)C1CC(C)(C)NC(C)(C)C1 [Example 13-1, 5-(4-amino-1H-pyrazole-1-yl)-2-(6-(methyl(2,2,6,6-tetramethylpiperidin-4-yl)amino)pyridazin-3-yl)phenol] | 20 | 3.46 | – | –
9 | CN(c1ccc(-c2ccc(-c3cnn(CCN4CCOCC4)c3)cc2O)nn1)C1CC(C)(C)NC(C)(C)C1 [Example 16-1, 2-(6-(methyl(2,2,6,6-tetramethylpiperidin-4-yl)amino)pyridazin-3-yl)-5-(1-(2-morpholino-ethyl)-1H-pyrazol-4-yl)phenol] | 77 | 2.66 | – | –
10 | CC1(C)CC(Oc2ccc(-c3cc4ccc(OCCN5CCOCC5)cc4cc3O)nn2)CC(C)(C)N1 [Example 20-9, 7-(2-morpholinoethoxy)-3-(6-((2,2,6,6-tetramethylpiperidin-4-yl)oxy)pyridazin-3-yl)naphthalen-2-ol] | 176 | 2.44 | – | –
11 | OCCN1CCN(c2ccc(-c3ccc(-n4cccn4)cc3O)nn2)CC1 [Example 18-7, 2-{6-[4-(2-hydroxy-ethyl)-piperazin-1-yl]-pyridazin-3-yl}-5-pyrazol-1-yl-phenol] | 2660 | 2.67 | – | –
12 | CN(c1ccc(-c2ccc(-c3ccn(C)c(=O)c3)cc2O)nn1)C1CC(C)(C)NC(C)(C)C1 [Example 41-7, 4-(3-hydroxy-4-(6-(methyl(2,2,6,6-tetramethylpiperidin-4-yl)amino)pyridazin-3-yl)phenyl)-1-methylpyridin-2(1H)-one] | 7 | 2.87 | – | –
13 | CN(c1ccc(-c2ccc3ncccc3c2)nn1)C1CC(C)(C)NC(C)(C)C1 [Example 1-13, N-methyl-6-(quinolin-6-yl)-N-(2,2,6,6-tetramethylpiperidin-4-yl)pyridazin-3-amine] | 661 | 2.22 | – | –
14 | CN(c1ccc(-c2ccc(-c3c[nH]cn3)cc2O)nn1)C1CC(C)(C)NC(C)(C)C1 [Example 42-2, 5-(1H-imidazol-4-yl)-2-(6-(methyl(2,2,6,6-tetramethylpiperidin-4-yl)amino)pyridazin-3-yl)phenol] | 26 | 2.06 | – | –
15 | CC1(C)CC(Nc2ccc(-c3cnc4ccccc4c3)nn2)CC(C)(C)N1 [Example 1-5, 6-(quinolin-3-yl)-N-(2,2,6,6-tetramethyl-piperidin-4-yl)pyridazin-3-amine] | – | – | 650 | 2.50
16 | CN(c1ccc(-c2cc(-c3ccn[nH]3)ccc2O)nn1)C1CC(C)(C)NC(C)(C)C1 [Example 32-6, 2-(6-(methyl(2,2,6,6-tetramethylpiperidin-4-yl)amino)pyridazin-3-yl)-4-(1H-pyrazol-3-yl)phenol] | 92 | 2.69 | – | –
17 | CN(c1ccc(-c2cc(Cl)c(-c3cn[nH]c3)cc2O)nn1)C1CC(C)(C)NC(C)(C)C1 [Example 34-1, 4-chloro-2-(6-(methyl(2,2,6,6-tetramethylpiperidin-4-yl)amino)pyridazin-3-yl)-5-(1H-pyrazol-4-yl)phenol] | 7 | 2.80 | – | –
18 | C[C@H](O)[C@@H]1CC(Oc2ccc(-c3ccc(-n4cccn4)cc3O)nn2)CC(C)(C)N1 (stereo partly shown) [Example 23-1] | 3650 | 2.32 | – | –
19 | CN(c1ccc(-c2cc3ccc(O)c(Br)c3cc2O)nn1)C1CC(C)(C)NC(C)(C)C1 [Example 24-4, 1-bromo-6-(6-(methyl(2,2,6,6-tetramethylpiperidin-4-yl)amino)pyridazin-3-yl)naphthalene-2,7-diol] | 16 | 3.06 | – | –
20 | CN1C(C)(C)CC(Nc2ccc(-c3ccc(Cl)cc3O)nn2)CC1(C)C [Example 3-4, 5-chloro-2-(6-(1,2,2,6,6-pentamethylpiperidin-4-ylamino)pyridazin-3-yl)phenol] | – | – | 620 | 2.03
21 | Cc1c[nH]c(-c2ccc(-c3ccc(N(C)C4CC(C)(C)NC(C)(C)C4)nn3)c(O)c2)n1 [Example 42-5, 2-(6-(methyl(2,2,6,6-tetramethylpiperidin-4-yl)amino)pyridazin-3-yl)-5-(4-methyl-1H-imidazol-2-yl)phenol] | 202 | 3.22 | – | –
22 | Oc1ccc2cc(-c3ccc(N4CCNCC4)nn3)c(O)cc2c1 [Example 18-18, 3-(6-(piperazin-1-yl)pyridazin-3-yl)naphthalene-2,7-diol] | 56 | 2.57 | – | –
23 | CN(C)c1ccc(-c2ccc(-c3ccc(N(C)C4CC(C)(C)NC(C)(C)C4)nn3)c(O)c2)cn1 [Example 41-10, 5-(6-(dimethylamino)pyridin-3-yl)-2-(6-(methyl(2,2,6,6-tetramethylpiperidin-4-yl)amino)pyridazin-3-yl)phenol] | 59 | 2.80 | – | –
24 | CN(c1ccc(-c2ccc(-c3ccn(C4CC4)c(=O)c3)cc2O)nn1)C1CC(C)(C)NC(C)(C)C1 [Example 41-14, 1-cyclopropyl-4-(3-hydroxy-4-(6-(methyl(2,2,6,6-tetramethylpiperidin-4-yl)amino)pyridazin-3-yl)phenyl)pyridin-2(1H)-one] | 84 | 3.21 | – | –
25 | CN(c1ccc(-c2cc(-c3cnn4c3CNCC4)ccc2O)nn1)C1CC(C)(C)NC(C)(C)C1 [Example 32-3, 2-(6-(methyl(2,2,6,6-tetramethylpiperidin-4-yl)amino)pyridazin-3-yl)-4-(4,5,6,7-tetrahydropyrazolo[1,5-a]pyrazin-3-yl)phenol] | 201 | 2.44 | – | –
26 | CN(c1ccc(-c2c(O)cc(-c3ccn(C)c(=O)c3)cc2OC(F)(F)F)nn1)C1CC(C)(C)NC(C)(C)C1 [Example 25-6, 4-(3-hydroxy-4-(6-(methyl(2,2,6,6-tetramethylpiperidin-4-yl)amino)pyridazin-3-yl)-5-(trifluoromethoxy)phenyl)-1-methylpyridin-2(1H)-one] | 107 | 2.16 | – | –
27 | CN(c1ccc(-c2ccc3cc(O)ccc3c2)nn1)C1CC(C)(C)NC(C)(C)C1 [Example 1-8, 6-(6-(methyl-(2,2,6,6-tetra-methylpiperidin-4-yl)amino)-pyridazin-3-yl)naphthalen-2-ol] | – | – | 320 | 2.18
28 | CC(=O)NCCCOc1ccc2cc(-c3ccc(N(C)C4CC(C)(C)NC(C)(C)C4)nn3)c(O)cc2c1 [Example 20-6, N-[3-(7-hydroxy-6-{6-[methyl-(2,2,6,6-tetramethyl-piperidin-4-yl)-amino]-pyridazin-3-yl}-naphthalen-2-yloxy)-propyl]-acetamide] | 50 | 2.18 | – | –
29 | CN(c1ccc(-c2cc(-c3c[nH]cn3)c(F)cc2O)nn1)C1CC(C)(C)NC(C)(C)C1 [Example 34-3, 5-fluoro-4-(1H-imidazol-4-yl)-2-(6-(methyl(2,2,6,6-tetramethylpiperidin-4-yl)amino)pyridazin-3-yl)phenol] | 27 | 2.56 | – | –
